Test: xn = mol fraction of the nth substance listed
Settings: 100 kPa, Liquid; for viscosity: Falling or rolling sphere viscometry; for mass density: Vibrating tube method

OCC1CCCCC1 [cyclohexylmethanol] + CCCCCCCCCCCC
Settings	mass density [kg/m3]	viscosity [mPa·s]
293.15 K, x2 = 0.1014	898.17	18.36
293.15 K, x2 = 0.1991	872.04	9.786
293.15 K, x2 = 0.299	849.06	6.177
293.15 K, x2 = 0.3997	828.81	4.307
293.15 K, x2 = 0.4992	811.3	3.223
293.15 K, x2 = 0.6005	795.57	2.542
293.15 K, x2 = 0.7008	781.83	2.087
293.15 K, x2 = 0.7986	769.9	1.809
293.15 K, x2 = 0.8996	758.73	1.594
298.15 K, x2 = 0.1014	894.59	14.59
298.15 K, x2 = 0.1991	868.46	7.99
298.15 K, x2 = 0.299	845.44	5.179
298.15 K, x2 = 0.3997	825.18	3.688
298.15 K, x2 = 0.4992	807.71	2.813
298.15 K, x2 = 0.6005	791.92	2.251
298.15 K, x2 = 0.7008	778.16	1.873
298.15 K, x2 = 0.7986	766.22	1.633
298.15 K, x2 = 0.8996	755.05	1.447
303.15 K, x2 = 0.1014	890.99	11.73
303.15 K, x2 = 0.1991	864.86	6.621
303.15 K, x2 = 0.299	841.79	4.403
303.15 K, x2 = 0.3997	821.5	3.197
303.15 K, x2 = 0.4992	804.02	2.479
303.15 K, x2 = 0.6005	788.23	2.01
303.15 K, x2 = 0.7008	774.47	1.69
303.15 K, x2 = 0.7986	762.53	1.481
303.15 K, x2 = 0.8996	751.37	1.321
308.15 K, x2 = 0.1014	887.35	9.573
308.15 K, x2 = 0.1991	861.23	5.545
308.15 K, x2 = 0.299	838.08	3.779
308.15 K, x2 = 0.3997	817.79	2.795
308.15 K, x2 = 0.4992	800.32	2.201
308.15 K, x2 = 0.6005	784.52	1.806
308.15 K, x2 = 0.7008	770.76	1.532
308.15 K, x2 = 0.7986	758.82	1.351
308.15 K, x2 = 0.8996	747.67	1.211
313.15 K, x2 = 0.1014	883.69	7.9
313.15 K, x2 = 0.1991	857.57	4.691
313.15 K, x2 = 0.299	834.37	3.271
313.15 K, x2 = 0.3997	814.07	2.461
313.15 K, x2 = 0.4992	796.59	1.966
313.15 K, x2 = 0.6005	780.79	1.631
313.15 K, x2 = 0.7008	767.03	1.395
313.15 K, x2 = 0.7986	755.09	1.237
313.15 K, x2 = 0.8996	743.96	1.115
318.15 K, x2 = 0.1014	879.99	6.588
318.15 K, x2 = 0.1991	853.91	4.005
318.15 K, x2 = 0.299	830.77	2.854
318.15 K, x2 = 0.3997	810.31	2.183
318.15 K, x2 = 0.4992	792.83	1.767
318.15 K, x2 = 0.6005	777.04	1.48
318.15 K, x2 = 0.7008	763.28	1.276
318.15 K, x2 = 0.7986	751.35	1.138
318.15 K, x2 = 0.8996	740.24	1.031
323.15 K, x2 = 0.1014	876.25	5.525
323.15 K, x2 = 0.1991	850.16	3.447
323.15 K, x2 = 0.299	827.01	2.507
323.15 K, x2 = 0.3997	806.53	1.947
323.15 K, x2 = 0.4992	789.05	1.594
323.15 K, x2 = 0.6005	773.26	1.348
323.15 K, x2 = 0.7008	759.51	1.171
323.15 K, x2 = 0.7986	747.58	1.05
323.15 K, x2 = 0.8996	736.5	0.957
328.15 K, x2 = 0.1014	872.47	4.696
328.15 K, x2 = 0.1991	846.36	2.99
328.15 K, x2 = 0.299	823.2	2.216
328.15 K, x2 = 0.3997	802.71	1.746
328.15 K, x2 = 0.4992	785.24	1.446
328.15 K, x2 = 0.6005	769.45	1.233
328.15 K, x2 = 0.7008	755.71	1.079
328.15 K, x2 = 0.7986	743.79	0.973
328.15 K, x2 = 0.8996	732.74	0.891
333.15 K, x2 = 0.1014	868.64	3.987
333.15 K, x2 = 0.1991	842.52	2.614
333.15 K, x2 = 0.299	819.35	1.972
333.15 K, x2 = 0.3997	798.87	1.574
333.15 K, x2 = 0.4992	781.41	1.318
333.15 K, x2 = 0.6005	765.62	1.132
333.15 K, x2 = 0.7008	751.89	0.997
333.15 K, x2 = 0.7986	739.98	0.904
333.15 K, x2 = 0.8996	728.97	0.832
